{
  "source": "patent US8114629B2",
  "about": "“Site specific incorporation of keto amino acids into proteins” (The Scripps Research Institute, priority 2002, dated 2012)",
  "key": {"[1]": {"tested_on": "E. coli DH10B cells", "assay": "growth of cells in the presence of the unnatural amino acid during Z domain expression", "conditions": "1 mM; cells transformed with mutRNA^TyrCUA, LW1RS and Z domain gene (Lys7TAG)", "procedure": "E. coli DH10B cells cotransformed with pLEIZ and pBK-LW1RS were grown in minimal media containing 1% glycerol and 0.3 mM leucine (GMML media) with 25 μg/mL kanamycin, 34 μg/mL of chloramphenicol, and 1.0 mM p-acetyl-(±)-phenylalanine. When cells reach an OD600 of 0.5, isopropyl-β-D-thiogalactopyranoside (IPTG) (1 mM) was added to induce protein expression.\nCells transformed with the mutRNA^TyrCUA, LW1RS and Z domain gene (Lys7TAG) were grown in the presence of 1 mM p-acetyl-(±)-phenylalanine."}, "[2]": {"tested_on": "cells harboring the one of the three mutant TyrRS plasmids", "assay": "chloramphenicol resistance of cells harboring mutant TyrRS plasmids selected for m-acetyl phenylalanine", "assay_type": "cell-based", "source_text": "Preparation of mutant TyrRS library plasmids: A library of plasmids encoding mutant M. jannaschii TryRSs directed at meta-substituted tyrosine derivatives was constructed, generally following the methods described in Example 1 of WO 2002/085923. Briefly, six residues (Tyr^32, Ala^67, His^70, Gln^155, Asp^158, Ala^167) in the active site of M. jannaschii TyrRS that are within 6.9 Å of the meta-position of the aryl ring of bound tyrosine in the crystal structure of Bacillus stearothermophilus TyrRS were mutated to all 20 amino acids at DNA level using the NNK codon scheme as described in Example 1 above. The constructed plasmid library pBK-lib contained around 1×10^9 independent clones.\nEvolution of orthogonal tRNA-synthetase pairs for incorporation of m-acetyl phenylalanine: After 3 rounds of positive selection and 2 rounds of negative selection, five candidate clones (SEQ ID NO: 17-21 of WO 2002/085923 and SEQ ID NO: 49-53 of WO 2002/085923) emerged whose survival in chloramphenicol was dependent on the addition of the unnatural amino acid. In the absence of m-acetyl phenylalanine, the IC50 of chloramphenicol resistance for cells harboring the one of the three mutant TyrRS plasmids is 20 μg/ml. In the presence of m-acetyl phenylalanine, the IC50 of resistance to chloramphenicol for the same cells is 100 μg/ml. […]"}, "[3]": {"tested_on": "E. coli cells expressing mutant TyrRS and mutRNA^TyrCUA", "assay": "in vivo assay based on suppression of the Asp112TAG codon in the CAT gene (chloramphenicol resistance), p-acetyl-L-phenylalanine synthetases", "assay_type": "cell-based", "conditions": "Escherichia coli, read-out: IC50 value chloramphenicol, eleven mutant TyrRS"}, "[4]": {"biological_target": "T1, mutRNA^TyrCUA/LW1RS (Methanocaldococcus jannaschii, UniProt Q57834, D158G/I159C/L162R/Y32L)", "T1 construct": "The mutant synthetase gene isolated from clone LW1 (LW1RS) was encoded in plasmid pBKLW1RS; expressed in transfected cells; host or cells: E. coli DH10B cotransformed with pLEIZ and pBK-LW1RS", "T1 sequence (Q57834 whole entry Y32L/D158G/I159C/L162R)": "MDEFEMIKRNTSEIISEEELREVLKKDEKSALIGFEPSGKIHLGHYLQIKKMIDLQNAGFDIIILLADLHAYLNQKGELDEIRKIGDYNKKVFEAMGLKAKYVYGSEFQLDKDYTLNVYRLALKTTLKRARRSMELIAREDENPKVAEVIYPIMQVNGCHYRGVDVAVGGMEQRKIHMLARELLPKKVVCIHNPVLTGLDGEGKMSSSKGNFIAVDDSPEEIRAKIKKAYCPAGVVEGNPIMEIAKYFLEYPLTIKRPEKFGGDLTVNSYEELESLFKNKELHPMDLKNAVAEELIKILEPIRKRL", "assay_type": "cell-based, Methanococcus jannaschii", "conditions": "mutant Z domain (Lys7TAG); from signal-to-noise ratio of more than 1500 in the intact protein mass spectrum", "quoted_text": "Protein expression and purification: Plasmid pLEIZ was used to express the Z-domain gene with an amber codon at the 7th position and a COOH-terminal His6 tag under the control of a bacteriophage T5 promoter and t0 terminator, and the mutRNA^TyrCUA gene under the control of the lpp promoter and rrnC terminator. The mutant synthetase gene isolated from clone LW1 (LW1RS) was encoded in plasmid pBKLW1RS under the control of the constitutive E. coli GlnRS promoter and terminator. E. coli DH10B cells cotransformed with pLEIZ and pBK-LW1RS were grown in minimal media containing 1% glycerol and 0.3 mM leucine (GMML media) with 25 μg/mL kanamycin, 34 μg/mL of chloramphenicol, and 1.0 mM p-acetyl-(±)-phenylalanine. When cells reach an OD600 of 0.5, isopropyl-β-D-thiogalactopyranoside (IPTG) (1 mM) was added to induce protein expression. After 5 hours, cells were pelleted and the protein was purified by Ni^2+ affinity chromatography under denaturing conditions according to the manufacturer's protocol (Qiagen, Valencia, Calif.). […] The yield of protein was measured by Bradford assay (BCA kit, Biorad, Hercules, Calif.). […]\nBoth the wt Z domain protein expressed by mutRNA^TyrCUA/wt TyrRS and the mutant Z domain protein expressed by the mutRNA^TyrCUA/LW1RS were analyzed by electrospray ionization Fourier transform ion cyclotron resonance mass spectrometry (FT-ICR MS). […]"}},
  "note": "Read-outs that look alike come from different tables or passages of the source.",
  "data": [
    {"smiles": "CC(=O)c1ccc(CC(N)C(=O)O)cc1", "note": "(racemic) [p-acetyl-(±)-phenylalanine]", "values": [
      {"measurement": "effect on growth rate of cells", "setting": "[1]", "value": "did not affect the growth rate of cells"}
    ]},
    {"smiles": "O=C(N[C@H](CO)[C@H](O)c1ccc([N+](=O)[O-])cc1)C(Cl)Cl", "note": "[chloramphenicol]", "values": [
      {"measurement": "IC50", "setting": "[2]; in the presence of m-acetyl phenylalanine, read-out: IC50 of resistance to chloramphenicol", "value": 100, "unit": "µg/mL"},
      {"measurement": "IC50", "setting": "[2]; read-out: IC50 of chloramphenicol resistance", "value": 20, "unit": "µg/mL"},
      {"measurement": "IC50", "setting": "[3]; in the absence of p-acetyl-L-phenylalanine", "value": 9, "unit": "µg/mL"},
      {"measurement": "IC50", "setting": "[3]; in the presence of p-acetyl-L-phenylalanine", "value": 120, "unit": "µg/mL"}
    ]},
    {"smiles": "CC(=O)c1ccc(C[C@H](N)C(=O)O)cc1", "note": "[p-acetyl-L-phenylalanine]", "values": [
      {"measurement": "fidelity for the incorporation", "setting": "[4]", "value": "> 99.8", "unit": "%"}
    ]}
  ]
}
